Experimental findings from patent US7160874B2, “Phenylalanine derivatives” (Ajinomoto Co., Inc., priority 1999, dated 2007) are described below.

One assay has as its target T1, integrin α4β1 (Homo sapiens, UniProt P05556+P13612).
T1 construct: cell strain Jurkat (ATCC TIB-152) of human T cells, known to express integrin α4β1; host or cells: Jurkat (human T cell line)
The assay can be described thus: VCAM antagonist activity (VCAM-1/α4β1 binding assay). It is filed as cell-based. How it is done: (Test Example) VCAM Antagonist Activity (VCAM-1/α4β1 Binding Assay):
The capacity of a test substance antagonistic to the binding of cell strain Jurkat (ATCC TIB-152) of human T cells, known to express integrin α4β1, to VCAM-1 was determined.
(§1) 100 μl/well of a solution (500 ng/ml) of recombinant human VCAM-1 (R & D systems) solution diluted with buffer A (0.1 M NaHCO3, pH 9.6) was added to a micro titer plate having 96 wells (Nunc Maxisorp). After the incubation at 4° C. overnight, unbound VCAM-1 was removed by washing once with PBS. After completion of the washing, a buffer (buffer B) obtained by diluting Block Ace® (Dainippon Pharmaceutical Co., Ltd.) with PBS to 1/4 concentration was added in an amount of 150 μl/well. After the incubation at room temperature for 1 hour, buffer B was removed and the plate was washed with PBS once.
Jurkat cells were washed with Dulbecco modified Eagle medium (SIGMA, hereinafter referred to as “DMEM”) twice and then incubated in DMEM containing 10 μg/ml of Calcein-AM (Wako Pure Chemical Industries, Ltd.) at 37° C. in dark place for 30 minutes to label with fluorescence. The cells were again suspended in a binding buffer (20 mM HEPES, DMEM containing 0.1% BSA).
(§2) 50 μl of a test substance of various concentrations obtained by the dilution with the binding buffer was added to the plate. Immediately thereafter, 50 μl (final volume: 100 μl/well) of the fluorescent Jurkat cells (4×10^6 cells/ml) were added thereto, and they were incubated at room temperature for 30 minutes. After the shaking on a plate shaker (IKA MTS-4) at 800 rpm for 30 seconds, the solution was immediately removed to remove the unbound cells. The fluorescence quantity of the bound cells remaining in the wells was determined with a fluorescent plate reader (Wallac 1420 ARVO multi-label counter) (filter excitation wave length: 485 nm, emission wave length: 535 nm). The fluorescent strength thus obtained is proportional to the number of Jurkat cells bound to VCAM-1 and remaining on the plate. The binding rate of each test material in various concentrations was determined while the fluorescent strength of the test material-free well was determined to be 100%. The concentration IC50 for the 50% binding inhibition was calculated.
(§3) The activities were classified into group A wherein IC50 was 0.02 μmol/l or below, group B wherein IC50 was higher than 0.02 μmol/l and not above 0.1 μmol/l, group C wherein IC50 was higher than 0.1 μmol/l and not above 2 μmol/l, and group D wherein IC50 was higher than 2 μmol/l and not above 10 μmol/l.

A further assay deals with T2, integrin α4β7 (Homo sapiens, UniProt P13612+P26010).
T2 construct: lymphoma cell strain RPMI-8866 of human B cells, known to express integrin α4β7; endogenous in cells; host or cells: RPMI-8866 (human B lymphoma cell line)
T2 sequence (P13612 34-1032): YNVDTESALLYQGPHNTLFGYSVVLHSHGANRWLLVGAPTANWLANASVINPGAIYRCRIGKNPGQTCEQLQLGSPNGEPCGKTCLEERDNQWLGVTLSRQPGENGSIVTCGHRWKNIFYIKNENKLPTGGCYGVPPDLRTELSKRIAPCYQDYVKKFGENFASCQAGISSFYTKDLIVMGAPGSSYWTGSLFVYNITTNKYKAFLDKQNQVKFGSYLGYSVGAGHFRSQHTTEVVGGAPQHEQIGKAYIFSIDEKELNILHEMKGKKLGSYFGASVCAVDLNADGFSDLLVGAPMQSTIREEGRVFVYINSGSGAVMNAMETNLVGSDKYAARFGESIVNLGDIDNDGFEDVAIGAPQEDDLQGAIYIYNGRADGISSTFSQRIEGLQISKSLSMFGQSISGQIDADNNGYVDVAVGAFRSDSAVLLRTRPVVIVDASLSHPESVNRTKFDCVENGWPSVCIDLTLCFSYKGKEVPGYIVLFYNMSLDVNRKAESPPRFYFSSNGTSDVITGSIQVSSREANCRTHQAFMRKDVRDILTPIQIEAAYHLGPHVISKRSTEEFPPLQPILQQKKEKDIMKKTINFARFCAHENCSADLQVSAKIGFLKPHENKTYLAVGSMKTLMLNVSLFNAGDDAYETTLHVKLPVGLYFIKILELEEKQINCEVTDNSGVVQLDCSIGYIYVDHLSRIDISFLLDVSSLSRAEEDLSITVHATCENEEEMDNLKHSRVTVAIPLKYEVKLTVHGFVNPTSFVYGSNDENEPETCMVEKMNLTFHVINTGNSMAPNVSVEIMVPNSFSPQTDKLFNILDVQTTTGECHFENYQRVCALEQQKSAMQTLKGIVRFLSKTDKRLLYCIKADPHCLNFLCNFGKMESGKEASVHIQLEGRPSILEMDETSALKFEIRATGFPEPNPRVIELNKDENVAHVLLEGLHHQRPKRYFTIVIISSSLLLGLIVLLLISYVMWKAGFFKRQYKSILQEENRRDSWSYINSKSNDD
T2 sequence (P26010 20-798): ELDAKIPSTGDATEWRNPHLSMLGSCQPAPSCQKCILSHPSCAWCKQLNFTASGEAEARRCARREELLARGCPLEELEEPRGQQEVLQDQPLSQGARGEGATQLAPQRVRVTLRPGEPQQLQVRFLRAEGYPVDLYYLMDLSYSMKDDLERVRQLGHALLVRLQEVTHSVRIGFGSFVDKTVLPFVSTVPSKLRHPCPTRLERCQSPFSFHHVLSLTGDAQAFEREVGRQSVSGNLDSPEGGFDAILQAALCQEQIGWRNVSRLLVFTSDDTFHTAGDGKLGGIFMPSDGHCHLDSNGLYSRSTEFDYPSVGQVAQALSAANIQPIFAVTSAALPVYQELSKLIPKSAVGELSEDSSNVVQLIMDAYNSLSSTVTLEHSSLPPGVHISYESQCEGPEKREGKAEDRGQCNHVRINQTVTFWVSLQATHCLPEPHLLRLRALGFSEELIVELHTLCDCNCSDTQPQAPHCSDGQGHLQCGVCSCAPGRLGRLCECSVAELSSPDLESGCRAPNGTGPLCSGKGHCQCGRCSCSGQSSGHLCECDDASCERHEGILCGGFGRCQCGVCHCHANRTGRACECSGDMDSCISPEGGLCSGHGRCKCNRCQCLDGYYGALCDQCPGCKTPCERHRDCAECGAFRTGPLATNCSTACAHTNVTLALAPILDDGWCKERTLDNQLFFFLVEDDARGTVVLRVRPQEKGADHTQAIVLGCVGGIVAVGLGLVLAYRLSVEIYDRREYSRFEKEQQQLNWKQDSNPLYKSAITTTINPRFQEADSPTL
The assay can be described thus: VCAM antagonistic activity (VCAM-1/α4β7 binding assay). It is filed as cell-based. On the procedure:
(Test Example) VCAM Antagonistic Activity (VCAM-1/α4β7 Binding Assay):
The capacity of a test substance antagonistic to the binding of lymphoma cell strain RPMI-8866 of human B cells, known to express integrin α4β7, to VCAM-1 was determined.
as §1
RPMI-8866 cells were incubated in Dulbecco modified Eagle medium containing 10 μg/ml of Calcein-AM (Wako Pure Chemical Industries, Ltd.) (SIGMA, hereinafter referred to as “DMEM”) at 37° C. for 30 minutes to label with fluorescence. The cells were again suspended in a binding buffer (20 mM HEPES, DMEM containing 0.1% BSA) containing 4 mM of MnCl2.
as §2, with “RPMI-8866” for “Jurkat”
as §3

Setting [1] is: Jurkat cells binding to VCAM-1, read-out: VCAM antagonistic activity (IC50) α4β1.
[2] abbreviates: RPMI-8866 cells binding to VCAM-1, read-out: VCAM antagonistic activity (IC50) α4β7.

The structures appear in SMILES notation. Like-named read-outs stand apart in the source and are kept apart here.

T1 sequence (P05556 21-798, one chain of several): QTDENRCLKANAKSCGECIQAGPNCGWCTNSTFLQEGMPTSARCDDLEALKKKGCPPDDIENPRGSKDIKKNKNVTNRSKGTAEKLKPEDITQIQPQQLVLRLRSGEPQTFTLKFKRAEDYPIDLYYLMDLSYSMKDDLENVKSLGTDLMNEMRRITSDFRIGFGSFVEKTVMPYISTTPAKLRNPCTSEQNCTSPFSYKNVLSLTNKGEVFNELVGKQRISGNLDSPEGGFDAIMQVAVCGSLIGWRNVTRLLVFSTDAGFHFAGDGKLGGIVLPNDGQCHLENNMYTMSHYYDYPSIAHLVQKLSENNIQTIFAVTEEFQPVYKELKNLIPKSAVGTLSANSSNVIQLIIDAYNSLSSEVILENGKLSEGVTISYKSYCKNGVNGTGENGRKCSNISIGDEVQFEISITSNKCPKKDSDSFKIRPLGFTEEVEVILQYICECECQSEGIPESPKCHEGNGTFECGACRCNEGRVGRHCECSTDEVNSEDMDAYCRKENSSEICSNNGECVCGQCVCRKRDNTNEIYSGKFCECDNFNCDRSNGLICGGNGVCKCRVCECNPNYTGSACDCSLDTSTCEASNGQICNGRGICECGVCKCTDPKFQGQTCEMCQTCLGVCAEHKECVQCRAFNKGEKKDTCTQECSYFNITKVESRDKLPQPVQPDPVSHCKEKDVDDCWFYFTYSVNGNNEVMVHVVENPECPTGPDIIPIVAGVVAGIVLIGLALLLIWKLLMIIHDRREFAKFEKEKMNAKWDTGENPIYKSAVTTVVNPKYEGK

Broadly, the IC50 is the point on the concentration scale where inhibition reaches its midpoint. For the compound `O=C1CCN(C(=O)C2(C(=O)N[C@@H](Cc3ccc(OCc4c(Cl)cccc4Cl)cc3)C(=O)O)CC2)C1` [Example 59], the concentration for half-maximal inhibition (IC50) fell in the range of 100 to 2000 nM on integrin α4β1 (setting [1]) and 20 to 100 nM on integrin α4β7 (setting [2]).
Regarding `CCC(CC)(C(=O)N[C@@H](Cc1ccc(OCc2c(Cl)cccc2Cl)cc1)C(=O)O)C(=O)N1CCCN(C=O)CC1` [Example 61], the half-inhibitory concentration (IC50) lay in the range of 100 to 2000 nM at integrin α4β1 (setting [1]) and 20 to 100 nM on integrin α4β7 (setting [2]).
For `CCC(CC)(C(=O)N[C@@H](Cc1ccc(OCc2c(Cl)cccc2Cl)cc1)C(=O)O)C(=O)N1CC[C@@H](NC(=O)C(F)(F)F)C1` [Example 63], in that order: 100 to 2000 nM and 20 to 100 nM.
The matching figures for `CCC(CC)(C(=O)N[C@@H](Cc1ccc(OCc2c(Cl)cccc2Cl)cc1)C(=O)O)C(=O)N1CC[C@@H](NC)C1` [Example 64]: 100 to 2000 nM and 20 to 100 nM.
For `CCC(CC)(C(=O)N[C@@H](Cc1ccc(OCc2c(Cl)cccc2Cl)cc1)C(=O)O)C(=O)N1CC[C@H](O)C1` [Example 65], the values for the IC50 at integrin α4β1 (setting [1]) and at integrin α4β7 (setting [2]) were 100 to 2000 nM and below 20 nM, respectively.
The matching figures for `CCC(CC)(C(=O)N[C@@H](Cc1ccc(OCc2c(Cl)cccc2Cl)cc1)C(=O)O)C(=O)N1CC[C@H](N)C1` [Example 66]: 100 to 2000 nM and 20 to 100 nM.
For `CCC(CC)(C(=O)N[C@@H](Cc1ccc(OCc2c(Cl)cccc2Cl)cc1)C(=O)O)C(=O)N1CCC[C@H]1C(N)=O` [Example 67], the IC50 at integrin α4β1 (setting [1]) is 100 to 2000 nM; at integrin α4β7 (setting [2]) it was 20 to 100 nM.
For the compound `CCC(CC)(C(=O)N[C@@H](Cc1ccc(OCc2c(Cl)cccc2Cl)cc1)C(=O)O)C(=O)N1CCC(=O)C1` [Example 69], the IC50 at integrin α4β1 (setting [1]) is 100 to 2000 nM; at integrin α4β7 (setting [2]), below 20 nM.
The matching figures for `CCC(CC)(C(=O)N[C@@H](Cc1ccc(OCc2c(Cl)cccc2Cl)cc1)C(=O)O)C(=O)N1CCC[C@@H]1C(N)=O` [Example 70]: 20 to 100 nM and below 20 nM.
The matching figures for `CCC(CC)(C(=O)N[C@@H](Cc1ccc(OCc2c(Cl)cccc2Cl)cc1)C(=O)O)C(=O)N1CCC[C@H]1C(=O)NC` [Example 72]: 20 to 100 nM and below 20 nM.
The matching figures for `CCC(CC)(C(=O)N[C@@H](Cc1ccc(OCc2c(Cl)cccc2Cl)cc1)C(=O)O)C(=O)N1CC[C@@H](N)C1` [Example 76]: 100 to 2000 nM and below 20 nM.
Consider `CCC(CC)(C(=O)N[C@@H](Cc1ccc(OCc2c(Cl)cccc2Cl)cc1)C(=O)O)C(=O)N1CCC[C@@H](O)C1` [Example 77], for which the results for the IC50 on integrin α4β1 (setting [1]) and at integrin α4β7 (setting [2]) were 100 to 2000 nM and below 20 nM, respectively.
For `CCC(CC)(C(=O)N[C@@H](Cc1ccc(OCc2c(Cl)cccc2Cl)cc1)C(=O)O)C(=O)N1CCC1` [Example 78], in that order: 100 to 2000 nM and below 20 nM.
On to `CCC(CC)(C(=O)N[C@@H](Cc1ccc(OCc2c(Cl)cccc2Cl)cc1)C(=O)O)C(=O)N1CC(Br)C(Br)C1` (stereo partly drawn) [Example 79, N-(2-{[(trans-3,4-dibromopyrrolidine)-1-yl]carbonyl}-2-ethyl-butanoyl)-O-(2,6-dichlorobenzyl)-L-tyrosine], for which the figures for the IC50 at integrin α4β1 and at integrin α4β7 were 100 to 2000 nM and below 20 nM, respectively.
With `CCC(CC)(C(=O)N[C@@H](Cc1ccc(OCc2c(Cl)cccc2Cl)cc1)C(=O)O)C(=O)N1CC[C@H](F)C1` [Example 80], the results for the IC50 at integrin α4β1 (setting [1]) and on integrin α4β7 (setting [2]) were 100 to 2000 nM and below 20 nM, respectively.
The matching figures for `CCC(CC)(C(=O)N[C@@H](Cc1ccc(OCc2c(Cl)cccc2Cl)cc1)C(=O)O)C(=O)N1C[C@@H](O)[C@@H](O)C1` [Example 81, N-(2-{[(cis-3,4-dihydroxypyrrolidine)-1-yl]carbonyl}-2-ethyl-butanoyl)-O-(2,6-dichlorobenzyl)-L-tyrosine]: 100 to 2000 nM and below 20 nM.
Regarding `CCC(CC)(C(=O)N[C@@H](Cc1ccc(OCc2c(Cl)cccc2Cl)cc1)C(=O)O)C(=O)N1CC(O)C(Cl)C1` (stereo partly drawn) [Example 82], the half-inhibitory concentration (IC50) on integrin α4β1 (setting [1]) was 20 to 100 nM; at integrin α4β7 (setting [2]) it was below 20 nM.
For `CCC(CC)(C(=O)N[C@@H](Cc1ccc(OCc2c(Cl)cccc2Cl)cc1)C(=O)O)C(=O)N1CC[C@@H](F)C1` [Example 84], the IC50 was 100 to 2000 nM at integrin α4β1 (setting [1]) and below 20 nM at integrin α4β7 (setting [2]).
